Legend:
Experiment in all cases: relative viability vs DMSO control (72 h) (fraction); higher = more viable cells
[1] = system: SK-LMS-1
Procedure, shortened: (§1)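 Sarcoma cell lines in 384-well plates, seeded to reach 80–90% confluence, were given compound after 24 h and kept 72 h at 37 °C, 5% CO2, with 0.1% DMSO vehicle and a 5 µM positive control. Relative viability came from ATPLite as percent growth, averaged over up to triplicate wells. On the rescaled values, 1 equals full and 0 equals none.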

[2] = system: VA-ES-BJ
Procedure, shortened: as §1

[3] = system: HS729
Procedure, shortened: as §1

[4] = system: RD
Procedure, shortened: as §1

[5] = system: MES-SA
Procedure, shortened: as §1

O=C(Nc1nc2cccc(-c3ccc(CN4CCS(=O)(=O)CC4)cc3)n2n1)C1CC1 [Filgotinib]
relative viability
Details | [1] | [2] | [3] | [4] | [5]
0.00017 µM | 1.06 | 1.05 | 1.04 | 1.02 | 0.977
0.00051 µM | 1.08 | 1.05 | 0.993 | 1.04 | 0.964
0.00152 µM | 1.06 | 1.05 | 0.953 | 1.04 | 0.943
0.00457 µM | 1.06 | 1.01 | 0.95 | 1.1 | 0.965
0.01372 µM | 1.06 | 1.01 | 0.938 | 1.07 | 0.949
0.04115 µM | 1.08 | 0.997 | 0.898 | 1.1 | 0.953
0.1235 µM | 1.05 | 1.01 | 0.888 | 1.07 | 0.957
0.3704 µM | 1.05 | 1.01 | 0.934 | 1.1 | 0.935
1.111 µM | 1.04 | 0.976 | 0.906 | 1.1 | 0.94
3.333 µM | 1.02 | 0.954 | 0.849 | 1.01 | 0.923
10 µM | 0.866 | 0.851 | 0.831 | 0.846 | 0.736

CCc1cnn2c(NCc3ccc[n+]([O-])c3)cc(N3CCCC[C@H]3CCO)nc12 [Dinaciclib]
relative viability
Details | [1] | [2] | [3] | [4] | [5]
0.00017 µM | 1.06 | 0.994 | 1.05 | 0.828 | 0.994
0.00051 µM | 1.05 | 1.011 | 1.08 | 0.851 | 1.04
0.00152 µM | 1.07 | 1.03 | 1.09 | 0.821 | 0.957
0.00457 µM | 1.03 | 0.94 | 1.06 | 0.736 | 0.912
0.01372 µM | 0.817 | 0.269 | 1.03 | 0.504 | 0.383
0.04115 µM | 0.325 | 0.222 | 0.396 | 0.163 | 0.0374
0.1235 µM | 0.309 | 0.227 | 0.378 | 0.162 | 0.0354
0.3704 µM | 0.333 | 0.255 | 0.397 | 0.137 | 0.0357
1.111 µM | 0.341 | 0.245 | 0.386 | 0.119 | 0.0288
3.333 µM | 0.34 | 0.253 | 0.371 | 0.103 | 0.0272
10 µM | 0.353 | 0.247 | 0.332 | 0.0835 | 0.0262

Cc1cc2cc(Oc3ccnc(Nc4cccc(CS(=O)(=O)NCCN(C)C)c4)n3)ccc2[nH]1 [Sulfatinib]
relative viability
Details | [1] | [2] | [3] | [4] | [5]
0.00017 µM | 1 | 1.03 | 0.983 | 1.074 | 0.911
0.00051 µM | 1.07 | 1.03 | 0.993 | 1.09 | 0.92
0.00152 µM | 1.01 | 1.02 | 0.979 | 1.09 | 0.913
0.00457 µM | 1.04 | 1.03 | 0.9 | 1.123 | 0.906
0.01372 µM | 1.04 | 1.02 | 0.939 | 1.1 | 0.925
0.04115 µM | 1.03 | 1.02 | 0.872 | 1.094 | 0.894
0.1235 µM | 1.03 | 1 | 0.877 | 1.12 | 0.9221
0.3704 µM | 0.986 | 1.04 | 0.843 | 1.09 | 0.9312
1.111 µM | 1.01 | 1.08 | 0.768 | 1.07 | 0.969
3.333 µM | 0.924 | 1.04 | 0.629 | 0.981 | 0.791
10 µM | 0.531 | 0.486 | 0.49 | 0.456 | 0.299

CN1CC[C@@H](NC(=O)Nc2ccc(C#N)cc2)C[C@@H]1c1nc2ccccc2[nH]1 [Glasdegib]
relative viability
Details | [1] | [2] | [3] | [4] | [5]
0.00017 µM | 1.08 | 1.07 | 1.07 | 1.02 | 0.945
0.00051 µM | 1.09 | 1.07 | 1.02 | 1.03 | 0.956
0.00152 µM | 1.111 | 1.06 | 1.05 | 1.05 | 0.976
0.00457 µM | 1.07 | 1.068 | 0.993 | 1.04 | 0.956
0.01372 µM | 1.14 | 1.07 | 1.02 | 1.02 | 0.952
0.04115 µM | 1.11 | 1.06 | 1.05 | 0.99 | 0.915
0.1235 µM | 1.09 | 1.05 | 1.03 | 0.988 | 0.938
0.3704 µM | 1.06 | 1.04 | 0.984 | 0.983 | 0.919
1.111 µM | 1.07 | 1.01 | 1.03 | 1.02 | 0.926
3.333 µM | 1.02 | 1.08 | 0.993 | 1 | 0.935
10 µM | 1.03 | 1.06 | 1.03 | 1.06 | 0.85

COc1cc(OC)c(/C=C/S(=O)(=O)Cc2ccc(OC)c(NCC(=O)O)c2)c(OC)c1 [Rigosertib]
relative viability
Details | [1] | [2] | [3] | [4] | [5]
0.00017 µM | 1.08 | 1.05 | 0.973 | 1.08 | 0.901
0.00051 µM | 1.05 | 1.03 | 0.989 | 1.09 | 0.906
0.00152 µM | 1.05 | 1.02 | 0.934 | 1.08 | 0.911
0.00457 µM | 1.03 | 1.03 | 0.938 | 1.094 | 0.91
0.01372 µM | 1.03 | 1.05 | 1.02 | 1.05 | 0.918
0.04115 µM | 0.912 | 0.961 | 0.966 | 1.04 | 0.932
0.1235 µM | 0.659 | 0.772 | 0.928 | 0.825 | 0.607
0.3704 µM | 0.492 | 0.53 | 0.85 | 0.372 | 0.271
1.111 µM | 0.359 | 0.43 | 0.625 | 0.215 | 0.172
3.333 µM | 0.355 | 0.403 | 0.579 | 0.23 | 0.13
10 µM | 0.325 | 0.2992 | 0.517 | 0.256 | 0.13

CC[C@@H]1CN(C(=O)NCC(F)(F)F)C[C@@H]1c1cnc2cnc3[nH]ccc3n12 [Upadacitinib]
relative viability
Details | [1] | [2] | [3] | [4] | [5]
0.00017 µM | 1.06 | 1.1 | 1.02 | 1.07 | 0.941
0.00051 µM | 1.05 | 1.05 | 0.954 | 1.08 | 0.949
0.00152 µM | 1.07 | 1.07 | 0.973 | 1.13 | 0.947
0.00457 µM | 1.07 | 1.04 | 0.97 | 1.13 | 0.939
0.01372 µM | 1.09 | 1.05 | 0.931 | 1.14 | 0.932
0.04115 µM | 1.08 | 1.06 | 0.946 | 1.14 | 0.92
0.1235 µM | 1.056 | 1.04 | 0.895 | 1.08 | 0.923
0.3704 µM | 1.05 | 1.037 | 0.837 | 1.14 | 0.936
1.111 µM | 1.02 | 1 | 0.834 | 1.14 | 0.885
3.333 µM | 0.979 | 1.03 | 0.805 | 1.07 | 0.873
10 µM | 0.772 | 0.995 | 0.761 | 1 | 0.812

CNC(=O)c1ccccc1Sc1ccc2c(/C=C/c3ccccn3)n[nH]c2c1 [Axitinib]
relative viability
Details | [1] | [2] | [3] | [4] | [5]
0.00017 µM | 1.11 | 1.11 | 1.09 | 0.981 | 0.995
0.00051 µM | 1.14 | 1.097 | 1.03 | 0.977 | 0.9681
0.00152 µM | 1.12 | 1.11 | 1.04 | 1 | 0.978
0.00457 µM | 1.09 | 1.12 | 0.987 | 1.01 | 0.977
0.01372 µM | 1.1 | 1.09 | 0.909 | 1.01 | 0.967
0.04115 µM | 1.09 | 1.08 | 0.916 | 0.98 | 0.949
0.1235 µM | 1.17 | 1.05 | 0.929 | 0.984 | 0.951
0.3704 µM | 1.17 | 0.9867 | 0.861 | 0.892 | 0.785
1.111 µM | 1.18 | 0.977 | 0.698 | 0.874 | 0.825
3.333 µM | 1.13 | 0.61 | 0.271 | 0.465 | 0.257
10 µM | 0.55 | 0.263 | 0.111 | 0.183 | 0.056

From the supplement of paper PMC10883282
